Assays:
[1] = In vitro release/permeation assay through porcine sublingual mucosa, unmodified or modified with formulations, Franz diffusion cells; assay type: in vitro ADME; settings: for permeability (in words): across skin, mucosa and modified mucosa; for decrease in the permeability coefficient promoted by F16: mucosa modified with F16 vs unmodified mucosa; for Papp at 4 h, 1 %: pig, read-out: Permeability Coef. Kp (converted); for area under the curve, flux and permeability through unmodified mucosa compared to skin: unmodified mucosa vs porcine skin
Experimental: (§1) The in vitro release test was conducted with artificial membrane (Whatman® Nuclepore™) and porcine sublingual mucosa as well as pig skin membrane as a reference. Biological membranes (mucosa and skin) were dermatomed at 500 ± 50 µm of thickness. Membranes were placed in vertical Franz diffusion cells and conditioned in a thermostatic bath at 43 °C to assure a membrane surface temperature of 32 ± 1 °C as in the previous TMWL study. The receptor solution used was the same PBS:EtOH (1:1) as before. Data on the TWML, temperature, and humidity of the membrane were obtained before initiating the test with the Tewameter TM300 (Courage-Khazaka, Cologne, Germany).
(§2) On the modified mucosas, a volume of 70 µL of each formulation was applied and after one hour an infinite dose (300 µL) of tested solution was applied. […] Receptor fluid was collected at different times (30 min, 1 h, 2 h, 4 h) and the same volume was immediately replaced with fresh fluid. The aliquots were appropriately diluted and filtered (0.45 µm, Cameo, Sigma-Aldrich, St. Louis, MO, USA) before their analysis with HPLC/DAD.
(§3) The release of the active substances was determined with the cumulative amount released (Qn, μg/cm^2), which represents the cumulative amount of the active substances quantified in the receptor fluid per area of the sample [34]. The equation is as follows (1):(1) Qn=Cn×Vc+∑i=1n−1(Ci×Vs)/A, where Qn is the cumulative amount of active substance released at time n (μg/cm^2); Cn is the concentration of active substance in the collected sample (μg/mL); Vc is the volume of the Franz diffusion cell (3 mL); ∑i=1n−1 Ci is the sum of the active substance concentrations (µg/mL) determined in sampling intervals 1 to n − 1; Vs is the volume of the collected sample; and A is the surface area of the applied membrane (1.86 cm^2).
(§4) The best absorption model to describe the release of active substances was obtained from the graphic representation of data release (values/time), as described by Mallandrich et al.. All data collected were processed over time to obtain the best fit equation for each membrane using the nonlinear regression software STATGRAPHICS® plus 5 (Statgraphics Technologies, Inc., The Plains, VA, USA). Selection of the best equation was made in accordance with the highest correlation coefficient corrected for the number of degrees of freedom (R^2). Following that analysis, the parameters of the flow (J, […]), the permeability coefficient (Kp, cm/h), the delay time (Tl, h), the maximum concentration (Cmax, µg/mL), the maximum time (tmax, h), and the area under the curve (AUC) were calculated for each membrane.
(§5) The software was OpenLab (version 2.2.0). […] Methanol (Merck, Darmstadt, Germany) was used as an extraction solvent for all active substances. All analytical procedures were validated following the guidelines developed by the International Conference on Harmonization (ICH). The calibration curve, limit of quantification (LoQ), and limit of detection (LoD) were obtained and are detailed in Table 5.

[2] = In vitro release/permeation assay through porcine skin, Franz diffusion cells; assay type: in vitro ADME; settings: infinite dose 300 µL of 1% solution; for Papp at 4 h, 1 %: pig, read-out: Permeability Coef. Kp (converted)
Experimental: as §1, §2, §3, §4, §5

[3] = cited from earlier work
[4] = cited from earlier work; remark: listed apart in the source

Compound | Flux. J ([1]; MUCOSA F3) | Lag Time. TL ([1]; MUCOSA F3) | Flux. J ([1]; MUCOSA F6) | Lag Time. TL ([1]; MUCOSA F6) | Flux. J ([1]; MUCOSA F16) | Lag Time. TL ([1]; MUCOSA F16) | Flux. J ([1]; MUCOSA unmodified) | Lag Time. TL ([1]; MUCOSA unmodified) | permeability (in words) [1] | decrease in the permeability coefficient promoted by F16 [1] | Papp at 4 h, 1 % ([1]; MUCOSA F3) | Papp at 4 h, 1 % ([1]; MUCOSA F6) | Papp at 4 h, 1 % ([1]; MUCOSA F16) | Papp at 4 h, 1 % ([1]; MUCOSA unmodified) | area under the curve, flux and permeability through unmodified mucosa compared to skin [1] | Flux. J [2] | Lag Time. TL [2] | Papp at 4 h, 1 % [2] | pKa [3] | LogP (pH7.4) [4]
Cn1c(=O)c2c(ncn2C)n(C)c1=O [CAF, Caffeine] | 102.73 ± 30.73 µg/cm^2/h | 0.10 ± 0.08 h | 611.08 ± 85.12 µg/cm^2/h | 0.28 ± 0.08 h | 78.93 ± 11.05 µg/cm^2/h | -0.18 ± 0.03 h | 428.40 ± 81.41 µg/cm^2/h | 0.04 ± 0.34 h | high permeability | approximately 80% | 2.3 ×10⁻⁶ cm/s | 13.7 ×10⁻⁶ cm/s | 1.77 ×10⁻⁶ cm/s | 9.6 ×10⁻⁶ cm/s | approximately four times higher | 75.09 ± 51.32 µg/cm^2/h | 0.65 ± 0.24 h | 1.68 ×10⁻⁶ cm/s |  | 
C[C@@H]1C[C@H]2[C@@H]3CCC4=CC(=O)C=C[C@]4(C)[C@@]3(F)[C@@H](O)C[C@]2(C)[C@@]1(O)C(=O)CO [DEX, Dexamethasone] | 330.43 ± 11.68 µg/cm^2/h | 0.36 ± 0.04 h | 289.38 ± 99.51 µg/cm^2/h | 0.64 ± 0.36 h | 68.26 ± 1.67 µg/cm^2/h | -0.11 ± 0.27 h | 335.25 ± 61.25 µg/cm^2/h | 0.31 ± 0.13 h |  | approximately 80% |  |  |  |  |  | 5.84 ± 3.46 µg/cm^2/h | 0.62 ± 0.16 h |  | 12.1 | 
CC(C)Cc1ccc(C(C)C(=O)O)cc1 (stereo not shown) [IBU, Ibuprofen] | 498.25 ± 49.45 µg/cm^2/h | 0.23 ± 0.01 h | 451.01 ± 98.04 µg/cm^2/h | 0.35 ± 0.06 h | 74.41 ± 0.16 µg/cm^2/h | 0.15 ± 0.003 h | 346.91± 5.87 µg/cm^2/h | 0.17 ± 0.07 h | intermediate permeability | approximately 80% | 11.4 ×10⁻⁶ cm/s | 10.4 ×10⁻⁶ cm/s | 1.71 ×10⁻⁶ cm/s | 7.96 ×10⁻⁶ cm/s | 14 times higher | 24.79 ± 2.75 µg/cm^2/h | -0.24 ± 0.19 h | 0.569 ×10⁻⁶ cm/s |  | 
Ivermectin | 87.23 ± 21.83 µg/cm^2/h | 0.28 ± 0.02 h | 144.86 ± 29.93 µg/cm^2/h | 0.32 ± 0.10 h | 41.70 ± 5.67 µg/cm^2/h | -0.09 ± 0.46 h | 63.75 ± 1.57 µg/cm^2/h | 0.24 ± 0.001 h |  | approximately 40% |  |  |  |  |  | 3.13 ± 0.86 µg/cm^2/h | 0.59 ± 0.28 h |  | 12.47 | 5.83
